Assay results reported in the NIST ThermoML archive (doi:10.1021/je800150h).
± gives the expanded uncertainty stated by the source.

Test: mn = molality of the nth substance listed, in mol/kg
Conditions: 101 kPa, Liquid; for electrical conductivity: CyberScan CON500 conductivity meter

[Cl-].[Li+] [lithium chloride] + CCO
Conditions | electrical conductivity [S/m] | mass density [kg/m3] | viscosity [mPa·s]
268.1 K, m1 = 0.196 | 0.117 ± 0.0094 | 810.9 ± 3.8 | 2.208 ± 0.1
268.1 K, m1 = 0.391 | 0.197 ± 0.016 | 817.9 ± 3.8 | 2.546 ± 0.12
268.1 K, m1 = 0.782 | 0.269 ± 0.021 | 828.4 ± 3.9 | 3.283 ± 0.15
268.1 K, m1 = 1.173 | 0.3 ± 0.024 | 838.1 ± 3.9 | 4.167 ± 0.19
268.1 K, m1 = 1.76 | 0.305 ± 0.024 | 854.5 ± 4 | 5.819 ± 0.26
268.1 K, m1 = 2.347 | 0.276 ± 0.022 | 869.4 ± 4.1 | 9.082 ± 0.38
268.1 K, m1 = 3.129 | 0.222 ± 0.018 | 887.7 ± 4.2 | 14.96 ± 0.6
268.1 K, m1 = 3.911 | 0.162 ± 0.013 | 907.8 ± 4.3 | 25.44 ± 1
273.1 K, m1 = 0.196 | 0.13 ± 0.01 | 805.1 ± 3.6 | 2.043 ± 0.096
273.1 K, m1 = 0.391 | 0.221 ± 0.018 | 810.6 ± 3.6 | 2.313 ± 0.11
273.1 K, m1 = 0.782 | 0.3 ± 0.024 | 821.3 ± 3.6 | 2.943 ± 0.14
273.1 K, m1 = 1.173 | 0.335 ± 0.027 | 832.5 ± 3.7 | 3.722 ± 0.17
273.1 K, m1 = 1.76 | 0.343 ± 0.027 | 847 ± 3.8 | 5.158 ± 0.23
273.1 K, m1 = 2.347 | 0.315 ± 0.025 | 863.1 ± 3.8 | 7.821 ± 0.33
273.1 K, m1 = 3.129 | 0.258 ± 0.021 | 882.4 ± 3.9 | 12.71 ± 0.51
273.1 K, m1 = 3.911 | 0.198 ± 0.016 | 901.1 ± 4 | 21.16 ± 0.85
278.1 K, m1 = 0.196 | 0.144 ± 0.011 | 803.2 ± 3.4 | 1.863 ± 0.088
278.1 K, m1 = 0.391 | 0.245 ± 0.02 | 810.3 ± 3.4 | 2.099 ± 0.098
278.1 K, m1 = 0.782 | 0.336 ± 0.027 | 821.5 ± 3.5 | 2.638 ± 0.12
278.1 K, m1 = 1.173 | 0.383 ± 0.031 | 834.1 ± 3.5 | 3.323 ± 0.15
278.1 K, m1 = 1.76 | 0.394 ± 0.032 | 845.5 ± 3.6 | 4.57 ± 0.21
278.1 K, m1 = 2.347 | 0.362 ± 0.029 | 864.5 ± 3.7 | 6.735 ± 0.29
278.1 K, m1 = 3.129 | 0.3 ± 0.024 | 883.6 ± 3.8 | 10.78 ± 0.44
278.1 K, m1 = 3.911 | 0.238 ± 0.019 | 902.1 ± 3.9 | 17.62 ± 0.7
283.1 K, m1 = 0.196 | 0.158 ± 0.013 | 796.1 ± 3.1 | 1.695 ± 0.08
283.1 K, m1 = 0.391 | 0.27 ± 0.022 | 800.9 ± 3.2 | 1.908 ± 0.09
283.1 K, m1 = 0.782 | 0.37 ± 0.03 | 812.2 ± 3.2 | 2.366 ± 0.11
283.1 K, m1 = 1.173 | 0.441 ± 0.035 | 823.4 ± 3.3 | 2.959 ± 0.14
283.1 K, m1 = 1.76 | 0.445 ± 0.036 | 837.4 ± 3.3 | 4.045 ± 0.18
283.1 K, m1 = 2.347 | 0.417 ± 0.033 | 854.2 ± 3.4 | 5.802 ± 0.25
283.1 K, m1 = 3.129 | 0.348 ± 0.028 | 875.7 ± 3.5 | 9.203 ± 0.38
283.1 K, m1 = 3.911 | 0.276 ± 0.022 | 891.8 ± 3.6 | 14.68 ± 0.59
288.15 K, m1 = 0.196 | 0.172 ± 0.014 | 789.7 ± 2.9 | 1.495 ± 0.071
288.15 K, m1 = 0.391 | 0.295 ± 0.024 | 795.9 ± 2.9 | 1.715 ± 0.081
288.15 K, m1 = 0.782 | 0.415 ± 0.033 | 807.5 ± 3 | 2.1 ± 0.098
288.15 K, m1 = 1.173 | 0.477 ± 0.038 | 817.5 ± 3.1 | 2.603 ± 0.12
288.15 K, m1 = 1.76 | 0.505 ± 0.04 | 831.6 ± 3.1 | 3.546 ± 0.16
288.15 K, m1 = 2.347 | 0.472 ± 0.038 | 849.1 ± 3.2 | 4.988 ± 0.23
288.15 K, m1 = 3.129 | 0.396 ± 0.032 | 868.4 ± 3.3 | 7.807 ± 0.33
288.15 K, m1 = 3.911 | 0.322 ± 0.026 | 886.9 ± 3.4 | 12.34 ± 0.49
293.15 K, m1 = 0.196 | 0.188 ± 0.015 | 786 ± 2.7 | 1.357 ± 0.065
293.15 K, m1 = 0.391 | 0.325 ± 0.026 | 791.9 ± 2.8 | 1.524 ± 0.073
293.15 K, m1 = 0.782 | 0.459 ± 0.037 | 803.3 ± 2.8 | 1.869 ± 0.088
293.15 K, m1 = 1.173 | 0.533 ± 0.043 | 813.6 ± 2.9 | 2.307 ± 0.11
293.15 K, m1 = 1.76 | 0.565 ± 0.045 | 828.8 ± 2.9 | 3.124 ± 0.14
293.15 K, m1 = 2.347 | 0.529 ± 0.042 | 845.4 ± 3 | 4.395 ± 0.2
293.15 K, m1 = 3.129 | 0.45 ± 0.036 | 864.7 ± 3.1 | 6.784 ± 0.29
293.15 K, m1 = 3.911 | 0.367 ± 0.029 | 883.4 ± 3.2 | 10.56 ± 0.43
298.15 K, m1 = 0.196 | 0.231 ± 0.018 | 782.4 ± 2.9 | 1.218 ± 0.059
298.15 K, m1 = 0.391 | 0.354 ± 0.028 | 788.3 ± 2.9 | 1.412 ± 0.068
298.15 K, m1 = 0.782 | 0.506 ± 0.041 | 799.4 ± 3 | 1.677 ± 0.079
298.15 K, m1 = 1.173 | 0.589 ± 0.047 | 810.3 ± 3 | 2.057 ± 0.096
298.15 K, m1 = 1.76 | 0.629 ± 0.05 | 823.8 ± 3.1 | 2.767 ± 0.13
298.15 K, m1 = 2.347 | 0.6 ± 0.048 | 842.3 ± 3.2 | 3.869 ± 0.18
298.15 K, m1 = 3.129 | 0.514 ± 0.041 | 861.9 ± 3.3 | 5.908 ± 0.26
298.15 K, m1 = 3.911 | 0.427 ± 0.034 | 880.5 ± 3.4 | 9.071 ± 0.37
303.15 K, m1 = 0.196 | 0.25 ± 0.02 | 776.5 ± 3 | 1.089 ± 0.053
303.15 K, m1 = 0.391 | 0.384 ± 0.031 | 782.5 ± 3.1 | 1.306 ± 0.063
303.15 K, m1 = 0.782 | 0.554 ± 0.044 | 794.7 ± 3.1 | 1.527 ± 0.073
303.15 K, m1 = 1.173 | 0.649 ± 0.052 | 804.8 ± 3.2 | 1.846 ± 0.087
303.15 K, m1 = 1.76 | 0.697 ± 0.056 | 819.5 ± 3.3 | 2.469 ± 0.11
303.15 K, m1 = 2.347 | 0.67 ± 0.054 | 837.1 ± 3.4 | 3.436 ± 0.16
303.15 K, m1 = 3.129 | 0.575 ± 0.046 | 856.7 ± 3.5 | 5.171 ± 0.23
303.15 K, m1 = 3.911 | 0.487 ± 0.039 | 875.4 ± 3.6 | 7.924 ± 0.33
308.15 K, m1 = 0.196 | 0.27 ± 0.022 | 773.8 ± 3.2 | 1.006 ± 0.05
308.15 K, m1 = 0.391 | 0.42 ± 0.034 | 779.7 ± 3.2 | 1.129 ± 0.055
308.15 K, m1 = 0.782 | 0.605 ± 0.048 | 791.2 ± 3.3 | 1.369 ± 0.066
308.15 K, m1 = 1.173 | 0.711 ± 0.057 | 802.3 ± 3.4 | 1.671 ± 0.079
308.15 K, m1 = 1.76 | 0.772 ± 0.062 | 816.6 ± 3.4 | 2.223 ± 0.1
308.15 K, m1 = 2.347 | 0.746 ± 0.06 | 835.6 ± 3.5 | 3.077 ± 0.14
308.15 K, m1 = 3.129 | 0.644 ± 0.051 | 854.7 ± 3.6 | 4.578 ± 0.21
308.15 K, m1 = 3.911 | 0.551 ± 0.044 | 873.6 ± 3.7 | 6.884 ± 0.29
313.15 K, m1 = 0.196 | 0.289 ± 0.023 | 773 ± 3.4 | 0.928 ± 0.046
313.15 K, m1 = 0.391 | 0.447 ± 0.036 | 779 ± 3.4 | 1.046 ± 0.052
313.15 K, m1 = 0.782 | 0.652 ± 0.052 | 790.7 ± 3.5 | 1.267 ± 0.061
313.15 K, m1 = 1.173 | 0.773 ± 0.062 | 801.9 ± 3.5 | 1.524 ± 0.073
313.15 K, m1 = 1.76 | 0.852 ± 0.068 | 815.8 ± 3.6 | 2.01 ± 0.094
313.15 K, m1 = 2.347 | 0.822 ± 0.066 | 835.2 ± 3.7 | 2.762 ± 0.13
313.15 K, m1 = 3.129 | 0.712 ± 0.057 | 854.7 ± 3.8 | 4.089 ± 0.18
313.15 K, m1 = 3.911 | 0.624 ± 0.05 | 873.7 ± 3.9 | 6.076 ± 0.26
318.15 K, m1 = 0.196 | 0.309 ± 0.025 | 772.2 ± 3.6 | 0.866 ± 0.044
318.15 K, m1 = 0.391 | 0.48 ± 0.038 | 778.6 ± 3.6 | 0.968 ± 0.048
318.15 K, m1 = 0.782 | 0.708 ± 0.057 | 790.9 ± 3.7 | 1.164 ± 0.057
318.15 K, m1 = 1.173 | 0.843 ± 0.067 | 801.8 ± 3.7 | 1.414 ± 0.068
318.15 K, m1 = 1.76 | 0.931 ± 0.074 | 816.8 ± 3.8 | 1.842 ± 0.087
318.15 K, m1 = 2.347 | 0.91 ± 0.073 | 834.9 ± 3.9 | 2.538 ± 0.12
318.15 K, m1 = 3.129 | 0.792 ± 0.063 | 853.9 ± 4 | 3.735 ± 0.17
318.15 K, m1 = 3.911 | 0.697 ± 0.056 | 874 ± 4.1 | 5.603 ± 0.25
323.15 K, m1 = 0.196 | 0.327 ± 0.026 | 768.7 ± 3.8 | 0.807 ± 0.041
323.15 K, m1 = 0.391 | 0.512 ± 0.041 | 774.3 ± 3.8 | 0.884 ± 0.045
323.15 K, m1 = 0.782 | 0.762 ± 0.061 | 786.1 ± 3.8 | 1.07 ± 0.053
323.15 K, m1 = 1.173 | 0.911 ± 0.073 | 796.6 ± 3.9 | 1.285 ± 0.062
323.15 K, m1 = 1.76 | 1.02 ± 0.082 | 811 ± 4 | 1.677 ± 0.079
323.15 K, m1 = 2.347 | 0.998 ± 0.08 | 830.4 ± 4.1 | 2.335 ± 0.11
323.15 K, m1 = 3.129 | 0.875 ± 0.07 | 851.3 ± 4.2 | 3.437 ± 0.16
323.15 K, m1 = 3.911 | 0.783 ± 0.063 | 869.4 ± 4.3 | 5.009 ± 0.23
